Entries after “also recorded” stand apart in the source; their conditions may differ.
Experiments:
E. coli (ATCC 8739) = test: Labeling of viable E. coli, fluorescence intensity by spectrofluorometer; assay type: cell-based, Escherichia coli; details: for E. coli staining at 40 µM compared with 5-CFDA or 5-PFDA / concentration range resulting in a saturation process / concentration up to which an increase of viable E. coli fluorescence intensity is obtained: data not shown; for viable E. coli fluorescence intensity relative to 5-CFDA staining: 10 - 15 µM, 30 min at 37 °C, excitation 488 nm, emission 517 nm, Figure 5
Experimental: For the staining tests, E. coli (ATCC 8739 or EC18), E. cloacae, C. indologenes, P. aeruginosa and B. subtilis were cultivated in Luria-Bertani (LB) broth until exponential phase at 37°C with shaking at 300 rpm revolutions per minutes (rpm). Bacteria were harvested and washed in sterile phosphate buffer saline solution (PBS) at pH […] by centrifugation at 10000 rpm for 3 min at room temperature (21 ± 2 °C). Then the bacteria were resuspended in PBS at a concentration of 1·10^9 bacteria/ml. Bacteria concentration was calculated according to the turbidity measure at 660 nm (A660nm=1 correspond to bacterial suspension at ∼ 5·10^8 bacteria/ ml).
Dead bacterial suspensions at 1·10^9 bacteria/ml (negative controls) of these five species of bacteria were prepared individually by addition of 20 µl of bleach containing 2.6 % active chlorine. Bacteria were treated with bleach solution for 15 min. Dead bacteria were washed twice in sterile PBS by centrifugation at 10000 rpm for 3 min at room temperature. The culturability of the negative controls was assessed by plating 100 µl of bacterial suspension onto LB agar or Caso agar and incubating the plates at 37 °C for 72 h.
[…] Bacteria were incubated at 37 °C for 10 - 60 min with pro-fluorophore in darkness. After bacterial staining, they were washed and resuspended in 100 µl of PBS as described above.
Staining of the bacterial suspension was observed under a fluorescent microscope. These bacteria were imaged with a Leica DM5500 microscope equipped with FITC filter. […] Images were collected with a 100x objective. Fluorescence intensity of stained bacterial suspension was also measured with FluoroLog®-3 (Horiba Jobin Yvon) spectrofluorometer equipped with sample stirring. Samples were placed in fluorescence grade quartz cuvette having a volume of 1 ml. The excitation wavelength used was 488 nm and emission wavelength used was 517 nm. The same experiment was repeated three times (n = 3).
Viable or dead E. coli (ATCC 8739) were incubated with different pro-fluorophores (10 - 15 µM) for 30 min at 37 °C. After washes, fluorescence of the E. coli suspension was measured with a FluoroLog®-3 spectrofluorometer (excitation wavelength: 488 nm, emission wavelength: 517 nm). Relative rates of viable E. coli fluorescence intensity were calculated by normalizing the difference of viable E. coli fluorescence intensity and dead E. coli fluorescence intensity with 5-CFDA staining.
Viable E. coli (ATCC 8739) were incubated with different pro-fluorophores (15 µM) at 37 °C for 10 - 60 min. After washes, E. coli fluorescence suspension was measured with FluoroLog®-3 spectrofluorometer (excitation wavelength: 488 nm, emission wavelength: 517 nm).

E. coli (EC18) = test: Immunocapture of E. coli on beads and viability staining; assay type: cell-based, Escherichia coli; details: 10 µM, 30 min at 37 °C, Trypan Blue as contrast agent
Source text: In a further test, antibodies anti-EC18 pAB and pro-fluorophores (5-POGDA, 5-POGAM) were used to immobilize E. coli (EC18) on beads and to reveal the immobilized bacteria respectively. Immunocapture of E. coli on beads was done in order to concentrate the fluorescent signal in order to improve the detection of the viable cells. In these experiments, Protein G Sepharose beads coated with goat-anti-rabbit immunoglobulins were used.
Environmental E. coli (E18) were cultivated and re-suspended in PBS as previously described. E. coli (EC18) (100 µl of suspension at 1*10^9 bacteria/ml) were incubated with rabbit anti-EC18 polyclonal antibodies (anti-EC18 pAb) or pre-immune control rabbit serum without anti-EC18 antibodies (PI-pAb) (dilution 1/20) for 1 h at room temperature. This control rabbit serum (PI-pAb) was obtained from a non-immunized animal (Eurogentec). It was used as a negative control. Bacteria were washed three times in PBS by centrifugation at 10000 rpm for 3 min at room temperature.
Proteine G Sepharose 4 Fast Flow beads were washed three times in Milli-Q water and three times in PBS by centrifugation at 2000 rpm for 2 min at 4 °C. Then 10 µl of sedimented beads were incubated with 20 µg of secondary antibody goat-anti-rabbit immunoglobulin (Thermo Scientific Pierce, 31210) in 500 µl of PBS with 0.001% of NP40 for 1h at room temperature with gentle mixing on a wheel. […]

[1] = Long-term stability in anhydrous DMSO (UHPLC-MS/MS); assay type: physicochemical; details: 120 µM in anhydrous DMSO, room temperature (23 ± 2 °C), absence of light, after 77 days
Experimental: To examine whether the pro-fluorophores 5-POGDA and 5-POGAM could be stored for at least two months in solution at room temperature (23 ± 2 °C) and in the absence of light, they were dissolved in anhydrous DMSO solvent and analysed by liquid chromatography-mass spectrometry. The analysis was performed using an UHPLC-MS/MS system (LC-MS 8030, Shimadzu). 5-POGDA or AM (120 µM) were stored in anhydrous DMSO. A solution of 5-CFDA (20 µM) in acetonitrile stored at -80°C was used as internal reference for HPLC-MS/MS analysis. The solution injected was composed of 5-POGDA or AM (1.2 µM), and 5-CFDA (0,2 µM) in H2O/acetonitrile, ratio 1/1 (V/V).
Data acquisition and analysis were performed using LabSolutions version 5 software. A 1.7 µm Kinetex™ column (50 X 2.1 mm) was used for HPLC. The mobile phase flow rate was fixed at 0.5 ml/min and the following program was applied for the elution: 0-1.2 min, 5-95% B; 1.2-1.4 min, 95% B; 1.4-1.42 min, […] and 1.42-2.8 min, 5% B. Solvent A consisted of 0.05% formic acid in water and solvent B was HPLC grade acetonitrile. 1 µl was injected.
The mass spectrometer was interfaced with the UHPLC system using an electrospray ion source. […] The percentage of remaining test compound relative to t0 was measured using the peak area on the chromatogram.

| Structure (SMILES) | E. coli staining at 40 µM compared with 5-CFDA or 5-PFDA (E. coli (ATCC 8739)) | viable E. coli fluorescence intensity relative to 5-CFDA staining (E. coli (ATCC 8739)) | concentration range resulting in a saturation process (E. coli (ATCC 8739)) [µM] | concentration up to which an increase of viable E. coli fluorescence intensity is obtained (E. coli (ATCC 8739)) | fluorescence intensity of viable E. coli captured on beads compared with 5-CFDA (E. coli (EC18)) | percentage remaining in the solution [1] |
| --- | --- | --- | --- | --- | --- | --- |
| CCCNC(=O)c1ccc2c(c1)C(=O)OC21c2cc(F)c(OCOC(C)=O)cc2Oc2cc(OCOC(C)=O)c(F)cc21 [Example 5-POGAM, 2',7'-difluoro-3-oxo-5-(propylcarbamoyl)-3H-spiroisobenzofuran-1,9'-xanthene-3',6'-diyl diacetoxymethyl ether] | stronger E. coli staining than 5-CFDA or 5-PFDA | between two and three times higher; also recorded: three times brighter | 20 to 40 | about 15 µM | still higher than the fluorescence intensity of E. coli stained with 5-CFDA | ~65% |
| CCCNC(=O)c1ccc2c(c1)C(=O)OC21c2cc(F)c(OC(C)=O)cc2Oc2cc(OC(C)=O)c(F)cc21 [Example 5-POGDA, 2',7'-difluoro-3-oxo-5-(propylcarbamoyl)-3H-spiro[isobenzofuran-1,9'-xanthene]-3',6'-diyl diacetate] | stronger E. coli staining than 5-CFDA or 5-PFDA | approximately 6 | 20 to 40 | about 15 µM | still higher than the fluorescence intensity of E. coli stained with 5-CFDA | around 18% |
